In PMC3825844 (Analytical biochemistry, 2013):

Key:
[1] = tested on: PXR protein (without SRC); settings: affinity selection-mass spectrometry; cited from earlier work
[2] = Solubility observed in TR-FRET assay dilution series; type: physicochemical; settings: at 100 μM, TR-FRET assay buffer, […] DMSO
[3] = tested on: PXR-SRC (steroid receptor coactivator) tethered protein; settings: read-out: hypothetical Kd, circular dichroism; cited from earlier work

Row | Structure (SMILES) | Kd [1] [nM] | solubility in assay [2] | Kd [3] [nM]
1 | Clc1ccccc1C(c1ccccc1)(c1ccccc1)n1ccnc1 [Clotrimazole, 1-[(2-chlorophenyl)diphenylmethyl]-1H-imidazole] | 330 | incomplete solubility | 290
2 | CO[C@H]1/C=C/O[C@@]2(C)Oc3c(C)c(O)c4c(O)c(c(/C=N/N5CCN(C)CC5)c(O)c4c3C2=O)NC(=O)/C(C)=C\C=C\[C@H](C)[C@H](O)[C@@H](C)[C@@H](O)[C@@H](C)[C@H](OC(C)=O)[C@@H]1C [Rifampicin, 3-(4-methylpiperazinyliminomethyl)rifamycin SV] | […] | – | 540
